Assay results published in US4039736A (Bristol-Myers Company, priority 1976, dated 1977).
In brackets after ≈: the same amount, converted by molar mass.

Tests used:
animal tumor systems = settings: reported in literature; cited from earlier work
Solubility = assay type: physicochemical
[1] = tested on: Streptococcus pneumoniae A-9585; assay: MIC, standard tube dilution procedure; assay type: cell-based; settings: A9585; in vitro, Streptococcus pneumoniae A-9585; read-out: MIC
[2] = tested on: Trichophyton mentagrophytes A-9870; assay: MIC, standard tube dilution procedure; assay type: cell-based; settings: A9870; in vitro, Trichophyton mentagrophytes A-9870; read-out: MIC
Candida krusei A-15052 = assay: MIC, standard tube dilution procedure; assay type: cell-based; settings: Pichia kudriavzevii, A15052; in vitro, Candida krusei A-15052; read-out: MIC
[3] = tested on: Staphylococcus aureus A-9537; assay: MIC, standard tube dilution procedure; assay type: cell-based; settings: A9537; in vitro, Staphylococcus aureus A-9537; read-out: MIC
[4] = tested on: Staphylococcus aureus A-9497; assay: MIC, standard tube dilution procedure; assay type: cell-based; settings: A9497; in vitro, Staphylococcus aureus A-9497; read-out: MIC
L-1210 leukemia [5] = assay: transplanted mouse leukemia L-1210 (ascitic); settings: single i.p. injection Day 1
Protocol: (§1) The compounds of the present invention were also tested against various transplantable rodent tumer systems.
(§2) Single injection Day 1 intraperitoneally.?
(§3) T/C percent MST=median survival time in days: Treated/Control × 100

[6] = acute intraperitoneal LD50 in mice; settings: mouse, in vivo, ip
Proteus mirabilis A-9900 = assay: MIC, standard tube dilution procedure; assay type: cell-based; settings: A9900; in vitro, Proteus mirabilis A-9900; read-out: MIC
[7] = activity of column fractions of bohemic acid complex; settings: Example 8 large scale fractionation
Protocol: Sephadex LH-20 soaked for 68 hours in chloroform was slurry packed into a Pharmacia SR 25/100 column (25 mm. I.D. × 100 cm. height) equipped with adjustable teflon tips at each end. The column was packed so as to be completely filled from tip to tip, an effective bed height of 90-95 cm. Bohemic acid complex (500 mg.) was dissolved in 10 ml. chloroform and applied to the column which was then allowed to develop with chloroform by downflow at a take-off rate of 1 ml./min. Eluted liquid was collected in 6 ml. cuts in a fraction collector. Samplings of even numbered tubes were diluted 80-fold with chloroform and read in a Bausch and Lomb Spectronic 20 colorimeter at 490 mμ. Four distinct bands of anthracycline pigments were noted as follows:
The solids obtained were chromatographed on Brinkmann 60F254 silica gel thin layer plates using an 80:20 toluene:methanol solvent system. […] The second band gave a characteristic pinkish red zone at about Rf =0.75. […] The third fraction to elute gave a single zone with Rf ~0.3. […] The final band to elute gave a zone at Rf ~0.3 and comprised mainly marcellomycin. […]
A 6 inch (diameter) × 77 inch (height) glass column was equipped at the base with a no clog filter on top of which was placed a layer of glass wool followed by a circular polyethylene frit. […] Aliquots of every fifth fraction were diluted and analyzed as described in Example 7. […]

[8] = tested on: Klebsiella pneumoniae A-9977; assay: MIC, standard tube dilution procedure; assay type: cell-based; settings: A9977; in vitro, Klebsiella pneumoniae A-9977; read-out: MIC
Escherichia coli A-15119 = assay: MIC, standard tube dilution procedure; assay type: cell-based; settings: A15119; in vitro, Escherichia coli A-15119; read-out: MIC
Escherichia coli A-21780 = assay: MIC, standard tube dilution procedure; assay type: cell-based; settings: A21780; in vitro, Escherichia coli A-21780; read-out: MIC
Candida albicans A-9540 = assay: MIC, standard tube dilution procedure; assay type: cell-based; settings: A9540; in vitro, Candida albicans A-9540; read-out: MIC
[9] = tested on: Candida tropicalis A-15051; assay: MIC, standard tube dilution procedure; assay type: cell-based; settings: A15051; in vitro, Candida tropicalis A-15051; read-out: MIC
P-388 leukemia = assay: transplanted mouse leukemia P-388 (ascitic); settings: single i.p. injection Day 1
Protocol: as §1, §2, §3

[10] = tested on: Cryptococcus neoformans A-1503; assay: MIC, standard tube dilution procedure; assay type: cell-based; settings: A1503; in vitro, Cryptococcus neoformans A-1503; read-out: MIC
L-1210 leukemia [11] = assay: L-1210 mouse leukemia, purified compounds, BDF1 female mice
Protocol: Inoculum: 10^6 ascitic cells, i.p. into BDF1 female mice
Treatment: i.p. in 0.5 ml. volume
Evaluation: MST = median survival time in days; %T/C = MST treated/MST
(prolongation of host survival)

[12] = tested on: Streptococcus pyogenes A-9604; assay: MIC, standard tube dilution procedure; assay type: cell-based; settings: A9604; in vitro, Streptococcus pyogenes A-9604; read-out: MIC
[13] = 3.2 mg/kg/day i.p., Day 1, 1 injection
[14] = 3.2 mg/kg/day i.p., Day 1→5, 5 injections
[15] = 6.4 mg/kg/day i.p., Day 1, 1 injection
[16] = 6.4 mg/kg/day i.p., Day 1→5, 5 injections
[17] = 12.8 mg/kg/day i.p., Day 1, 1 injection
[18] = .2 mg/kg/day i.p., Day 1→5, 5 injections
[19] = .4 mg/kg/day i.p., Day 1, 1 injection
[20] = .4 mg/kg/day i.p., Day 1→5, 5 injections
[21] = .8 mg/kg/day i.p., Day 1, 1 injection
[22] = .8 mg/kg/day i.p., Day 1→5, 5 injections

CC(=O)[C@]1(O)Cc2c(O)c3c(c(O)c2[C@@H](O[C@H]2C[C@H](N)[C@H](O)[C@H](C)O2)C1)C(=O)c1c(O)cccc1C3=O [carminomycin]
activity against animal tumor systems (animal tumor systems): active against several animal tumor systems

CC[C@@]1(O)C[C@H](O[C@H]2C[C@H](N(C)C)[C@H](O[C@H]3C[C@H](O)[C@H](O)[C@H](C)O3)[C@H](C)O2)c2c(cc3c(c2O)C(=O)c2c(O)ccc(O)c2C3=O)[C@H]1C(=O)OC [musettamycin]
Solubility (Solubility; organic solvents): Soluble in most organic solvents
Solubility (Solubility; water, aliphatic hydrocarbons and ether): insoluble in water, aliphatic hydrocarbons and ether
MIC [1]: 0.06 µg/mL (≈ 0.0838 µM)
MIC [2]: > 125 µg/mL
MIC (Candida krusei A-15052): 125 µg/mL (≈ 175 µM)
MIC [3]: 1 µg/mL (≈ 1.4 µM)
MIC [4]: 0.5 µg/mL (≈ 0.699 µM)
Avg. wt. Difference (T-C, g.) (L-1210 leukemia [5]; 3.2 mg/kg): -2.5 g
T/C Percent MST (L-1210 leukemia [5]; 3.2 mg/kg): 120%
Avg. wt. Difference (T-C, g.) (L-1210 leukemia [5]; 6.4 mg/kg): -2.5 g
T/C Percent MST (L-1210 leukemia [5]; 6.4 mg/kg): 140%
Avg. wt. Difference (T-C, g.) (L-1210 leukemia [5]; .8 mg/kg): -1.1 g
T/C Percent MST (L-1210 leukemia [5]; .8 mg/kg): 107%
LD50 [6]: 9.8 to 21.1 mg/kg
MIC (Proteus mirabilis A-9900): > 125 µg/mL
activity of fraction [7]: active
MIC [8]: > 125 µg/mL
MIC (Escherichia coli A-15119): > 125 µg/mL
MIC (Escherichia coli A-21780): 32 µg/mL (≈ 44.7 µM)
MIC (Candida albicans A-9540): 125 µg/mL (≈ 175 µM)
MIC [9]: 63 µg/mL (≈ 88 µM)
Avg. wt. Difference (T-C, g.) (P-388 leukemia; 3.2 mg/kg): -3.0 g
T/C Percent MST (P-388 leukemia; 3.2 mg/kg): 145%
Avg. wt. Difference (T-C, g.) (P-388 leukemia; 6.4 mg/kg): -3.4 g
T/C Percent MST (P-388 leukemia; 6.4 mg/kg): 160%
Avg. wt. Difference (T-C, g.) (P-388 leukemia; .2 mg/kg): -2.1 g
T/C Percent MST (P-388 leukemia; .2 mg/kg): 120%
Avg. wt. Difference (T-C, g.) (P-388 leukemia; .4 mg/kg): -1.6 g
T/C Percent MST (P-388 leukemia; .4 mg/kg): 135%
Avg. wt. Difference (T-C, g.) (P-388 leukemia; .8 mg/kg): -2.0 g
T/C Percent MST (P-388 leukemia; .8 mg/kg): 140%
MIC [10]: 63 µg/mL (≈ 88 µM)
Average Weight Change in g. (L-1210 leukemia [11]; [13]): +0.3 g.
MST %T/C (L-1210 leukemia [11]; [13]): 129%
MST Days (L-1210 leukemia [11]; [13]): 9.0 days
Average Weight Change (L-1210 leukemia [11]; [14]): -1.3 g
MST %T/C (L-1210 leukemia [11]; [14]): 157%
MST Days (L-1210 leukemia [11]; [14]): 11.0 days
Average Weight Change in g. (L-1210 leukemia [11]; [15]): +0.5 g.
MST %T/C (L-1210 leukemia [11]; [15]): 143%
MST Days (L-1210 leukemia [11]; [15]): 10.0 days
Average Weight Change (L-1210 leukemia [11]; [16]): -1.5 g
MST %T/C (L-1210 leukemia [11]; [16]): 86%
MST Days (L-1210 leukemia [11]; [16]): 6.0 days
Average Weight Change (L-1210 leukemia [11]; [17]): -0.6 g
MST %T/C (L-1210 leukemia [11]; [17]): 150%
MST Days (L-1210 leukemia [11]; [17]): 10.5 days
Average Weight Change in g. (L-1210 leukemia [11]; [18]): +1.8 g.
MST %T/C (L-1210 leukemia [11]; [18]): 129%
MST Days (L-1210 leukemia [11]; [18]): 9.0 days
Average Weight Change in g. (L-1210 leukemia [11]; [19]): +1.3 g.
MST %T/C (L-1210 leukemia [11]; [19]): 114%
MST Days (L-1210 leukemia [11]; [19]): 8.0 days
Average Weight Change in g. (L-1210 leukemia [11]; [20]): +0.6 g.
MST %T/C (L-1210 leukemia [11]; [20]): 129%
MST Days (L-1210 leukemia [11]; [20]): 9.0 days
Average Weight Change in g. (L-1210 leukemia [11]; [21]): +1.2 g.
MST %T/C (L-1210 leukemia [11]; [21]): 121%
MST Days (L-1210 leukemia [11]; [21]): 8.5 days
Average Weight Change in g. (L-1210 leukemia [11]; [22]): +0.4 g.
MST %T/C (L-1210 leukemia [11]; [22]): 136%
MST Days (L-1210 leukemia [11]; [22]): 9.5 days
MIC [12]: 0.06 µg/mL (≈ 0.0838 µM)
